Test results published in patent US7323474B2, “Pyridine derivatives inhibiting angiogenesis and/or VEGF receptor tyrosine kinase” (Novartis AG, priority 2000, dated 2008).

Tests used:
[1] = biological target: T1, KDR VEGF-receptor tyrosine kinase (Homo sapiens, UniProt P35968); test: Test for activity against KDR VEGF-receptor tyrosine kinase; format: biochemical; conditions: KDR kinase domain; poly(Glu,Tyr) 4:1 8 μg/ml, 8 μM [33P]-ATP, 10 minutes at room temperature
T1 construct: instead of the Flt-1 kinase domain, the KDR kinase domain
Description: Test for activity against VEGF-receptor tyrosine kinase: the test is conducted using Flt-1 VEGF-receptor tyrosine kinase. The detailed procedure is as follows: 30 μl kinase solution (kinase domain of Flt-1, Shibuya et al., Oncogene 5, 519-24 [1990], according to the specific activity, in order to achieve an activity of 4000-6000 counts per minute [cpm] in the sample without inhibitor) in 20 mM Tris.HCl pH 7.5, 3 mM manganese dichloride (MnCl2), 3 mM magnesium chloride (MgCl2) and 3 μg/ml poly(Glu,Tyr) 4:1 (Sigma, Buchs, Switzerland), 8 μM [^33P]-ATP (0.2 μCi/batch), 1% dimethyl sulfoxide, and 0 to 50 μM of the compound to be tested are Incubated together for 10 minutes at room temperature. The reaction is then ended by the addition of 10 μl 0.25 M ethylenediaminetetraacetate (EDTA) pH 7. Using a multichannel dispenser (LAB SYSTEMS, USA), an aliquot of 20 μl is applied to a PVDF (=polyvinyl difluoride) Immobilon P membrane (Millipore, USA), which is incorporated into a Millipore microtitre filter manifold, and connected to a vacuum. Following complete elimination of the liquid, the membrane is washed 4 times successively in a bath containing 0.5% phosphoric acid (H3PO4), incubated for 10 minutes each time while shaking, then mounted in a Hewlett Packard TopCount Manifold and the radioactivity measured after the addition of 10 μl Microscint® (β-scintillation counter liquid; Packard USA). IC50-values are determined by linear regression analysis of the percentages for the inhibition of each compound in three concentrations (as a rule 0.01, 0.1, and 1 μM). Inhibition values (IC50 50% inhibition of activity compared with the control without an inhibitor of formula I) in the range of 5 nM to 1 μM, especially In the range of 5 nM to 500 nM are found.
Analogously to the above test, the efficacy of the compounds according to the invention as inhibitors of VEGF activity can be tested using the VEGF receptor tyrokinase KDR. In this test, instead of the Flt-1 kinase domain, the KDR kinase domain (Parast et al., Biochemistry 37 (47), 16788-801 (1998)) is used. The only difference in carrying out this test from the above test lies in the concentration of poly(Glu,Tyr) 4:1 (8 μg/ml), MnCl2 (1 mM) and MgCl2 (10 mM).
Test for activity against KDR VEGF-receptor tyrosine kinase The test is conducted using KDR VEGF-receptor tyrosine kinase, as described hereinabove. The IC50 values determined are given below, insofar as they have been accurately recorded: […]

[2] = biological target: T2, human VEGF receptor (KDR) (Homo sapiens, UniProt P35968); test: Test for activity against VEGF-induced KDR phosphorylation (transfected CHO cells, sandwich ELISA); format: cell-based; conditions: 2 h compound, then VEGF 20 ng/ml for 5 min, % inhibition of VEGF-induced KDR phosphorylation, read-out: ED50 (the source's name)
T2 construct: expressed in transfected cells; host or cells: CHO cells (stably transfected)
Description: Using a further cellular in vitro experiment, the inhibition of the VEGF-induced KDR autophosphorylation can be confirmed: Transfected CHO cells, which permanently express human VEGF receptor (KDR), are seeded in culture medium (with 10% fetal calf serum=FCS) in 6-well cell culture plates and incubated at 37° C., 5% CO2 until they are approximately 80% confluent. The compounds to be tested are then diluted in culture medium (without FCS, with 0.1% bovine serum albumin=BSA) and added to the cells. (Controls receive medium without test compounds). After incubation for two hours at 37° C., recombinant VEGF is added; the final VEGF concentration is 20 ng/ml. After incubating for a further five minutes at 37° C., the cells are washed twice with ice-cold PBS (phosphate-buffered physiological saline) and immediately lysed in 100 μl lysis buffer per well. The lysates are then centrifuged to remove the cell nuclei, and the protein concentrations of the supematants are determined by a commercial protein assay (BIORAD). The lysates can then be either further used immediately or stored at −20° C. if required. To determine the KDR phosphorylation, a “sandwich ELISA” is carried out. A monoclonal antibody to KDR (for example Mab 1495.12.14; prepared by H. Towbin) is immobilised on black ELISA plates (OptiPlate™ HTRF-96 by Packard). Subsequently, the plates are washed and any remaining free protein binding sites are neutralised with 1% BSA in PBS. The cell lysates (20 μg protein per well) are then incubated over night at 4° C. together with an anti-phosphotyrosin antibody, which is coupled with alkaline phosphatase (PY20:AP from Transduction Laboratories). […] Luminescence is measured in a Packard Top Count Microplate Scintillation Counter (Top Count). The difference between the signal from the positive control (stimulated with VEGF) and that from the negative control (not stimulated with VEGF) corresponds to the VEGF-induced KDR phosphorylation (=100%). The activity of the tested substances is calculated as % inhibition of the VEGF-induced KDR phosphorylation, whereby the concentration of a substance which effects semi-maximum inhibition is called ED50 (effective dose for 50% inhibition). […] Test for activity against VEGF-Induced KDR phosphorylation The cellular in vitro test is carried out using VEGF and KDR-transfected cells, as described above. The ED50 values determined are given below, insofar as they have been accurately recorded: […]

T2 sequence (P35968 20-1356): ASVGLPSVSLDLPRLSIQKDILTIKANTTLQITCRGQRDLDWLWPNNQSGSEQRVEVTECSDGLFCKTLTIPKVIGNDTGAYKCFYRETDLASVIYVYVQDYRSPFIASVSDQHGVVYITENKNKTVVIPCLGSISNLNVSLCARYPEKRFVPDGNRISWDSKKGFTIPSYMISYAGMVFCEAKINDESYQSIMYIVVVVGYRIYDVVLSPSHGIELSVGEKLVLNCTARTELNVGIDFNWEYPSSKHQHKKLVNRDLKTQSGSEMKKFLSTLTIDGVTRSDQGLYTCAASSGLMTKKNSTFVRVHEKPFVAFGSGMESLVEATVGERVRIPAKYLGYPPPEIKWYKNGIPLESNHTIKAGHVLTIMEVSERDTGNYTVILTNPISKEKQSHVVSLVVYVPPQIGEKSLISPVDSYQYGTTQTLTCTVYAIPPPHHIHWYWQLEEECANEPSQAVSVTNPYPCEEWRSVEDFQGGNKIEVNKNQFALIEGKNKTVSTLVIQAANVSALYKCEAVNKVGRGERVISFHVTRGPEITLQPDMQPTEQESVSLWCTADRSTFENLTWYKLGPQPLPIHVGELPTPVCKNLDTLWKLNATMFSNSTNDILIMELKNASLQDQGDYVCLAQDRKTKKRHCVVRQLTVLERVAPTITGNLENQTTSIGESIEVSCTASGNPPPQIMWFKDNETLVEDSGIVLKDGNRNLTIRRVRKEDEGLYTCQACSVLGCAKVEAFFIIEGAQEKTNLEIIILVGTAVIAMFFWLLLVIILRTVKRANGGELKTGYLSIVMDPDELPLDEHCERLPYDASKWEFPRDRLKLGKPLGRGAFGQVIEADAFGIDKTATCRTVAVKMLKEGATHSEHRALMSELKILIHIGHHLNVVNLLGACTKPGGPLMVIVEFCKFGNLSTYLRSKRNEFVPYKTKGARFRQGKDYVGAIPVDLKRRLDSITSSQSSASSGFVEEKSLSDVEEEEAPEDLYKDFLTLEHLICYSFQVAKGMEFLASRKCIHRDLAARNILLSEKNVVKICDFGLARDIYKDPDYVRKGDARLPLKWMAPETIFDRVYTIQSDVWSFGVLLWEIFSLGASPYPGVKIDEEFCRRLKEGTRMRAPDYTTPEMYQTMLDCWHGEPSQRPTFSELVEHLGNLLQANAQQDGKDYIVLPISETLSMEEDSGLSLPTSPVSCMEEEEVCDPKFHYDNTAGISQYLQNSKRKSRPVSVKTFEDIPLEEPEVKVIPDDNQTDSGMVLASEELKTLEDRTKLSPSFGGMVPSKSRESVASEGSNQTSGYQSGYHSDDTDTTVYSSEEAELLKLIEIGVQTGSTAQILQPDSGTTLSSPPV
T1 sequence (P35968 834-1162 limits assumed): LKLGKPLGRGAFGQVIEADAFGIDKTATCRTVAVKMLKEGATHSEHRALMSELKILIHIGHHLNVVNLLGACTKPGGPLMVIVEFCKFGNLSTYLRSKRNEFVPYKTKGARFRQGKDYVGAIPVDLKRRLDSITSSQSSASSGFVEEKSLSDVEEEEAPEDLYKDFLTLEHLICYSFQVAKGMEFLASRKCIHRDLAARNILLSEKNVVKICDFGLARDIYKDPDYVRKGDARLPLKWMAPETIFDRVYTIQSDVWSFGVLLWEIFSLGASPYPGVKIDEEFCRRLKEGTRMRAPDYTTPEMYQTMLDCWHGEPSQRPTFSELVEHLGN

SMILES	melting point	IC50 [1]	IC50 [2]
CC(C)(C)[C@H]1CC[C@H](Nc2ncc(CCc3cccnc3)c3ccccc23)CC1 [16 (E isomer), trans 1-(4-tert-butyl-cyclohexylamino)-4-[2-(pyridin-3-yl)-ethyl]-isoquinoline]	124 to 125 °C	196 nM	
CC(C)[C@H]1CC[C@H](Nc2ncc(Cc3ccc(O)nc3)c3ccccc23)CC1 [29 (E isomer), trans 1-(4-isopropyl-cyclohexylamino)-4-[(6-hydroxy-pyridin-3-yl)-methyl]-isoquinoline]		87 nM	
Clc1ccc(Nc2ncc(CCc3cccnc3)c3ccccc23)cc1 [Example 1, 1-(4chloroanilino)-4-[2-(pyridin-3-yl)-ethyl]-isoquinoline]	157 to 158 °C	105 nM	
Cc1ccc(Nc2ncc(/C=C\c3cccnc3)c3ccccc23)cc1Br [Example 2, (Z) 1-(3-bromo-4-methylanilino)-4-[2-(pyridin-3-yl)-vinyl]-isoquinoline]		49 nM	
Cc1ccc(Nc2ncc(/C=C/c3cccnc3)c3ccccc23)cc1Br [Example 3, (E) 1-(3-bromo-4-methylanilino)-4-[2-(pyridin-3-yl)-vinyl]-isoquinoline]	196 to 197 °C	123 nM	
CC(C)(C)c1ccc(Nc2ncc(CCc3cccnc3)c3ccccc23)cc1 [Example 5]	81 °C	25 nM	10 nM
Nc1cc(Cl)cc(C(F)(F)F)c1 [Example 7, 5-amino-3-chloro-benzotrifluoride]		185 nM	
Cc1cc(Nc2ncc(CCc3cccnc3)c3ccccc23)ccc1C(C)C [Example 8]	133 to 134 °C	27 nM	11 nM
CCc1ccc(Nc2ncc(CCc3cccnc3)c3ccccc23)cc1Br [Example 9, 1-(3-bromo-4ethylanilino)-4-[2-(pyridin-3-yl)-ethyl]-isoquinoline]	119 °C	4 nM	91 nM
CC(C)(C)c1cccc(Nc2ncc(CCc3cccnc3)c3ccccc23)c1 [Example 10]	133 to 134 °C	33 nM	
FC(F)(F)c1ccc(Nc2ncc(CCc3cccnc3)c3ccccc23)cc1C(F)(F)F [Example 11]	124 to 125 °C	41 nM	
FC(F)(F)c1cc(Nc2ncc(CCc3cccnc3)c3ccccc23)cc(C(F)(F)F)c1 [Example 12]	174 °C	192 nM	
FC(F)(F)c1cc(Nc2ncc(CCc3cccnc3)c3ccccc23)ccc1Cl [Example 13]	159 °C	53 nM	
Cc1ccc(CCc2cnc(N[C@H]3CC[C@H](C(C)C)CC3)c3ccccc23)cn1 [Example 19, trans 1-(4-isopropyl-cyclohexylamino)-4-[2-(6-methyl-pyridin-3-yl)-ethyl]-isoquinoline]		127 nM	
Cc1ccc(CCc2cnc(Nc3ccc(C(C)C)c(C)c3)c3ccccc23)cn1 [Example 20]		48 nM	
CCc1ccc(Nc2ncc(CCc3ccc(C)nc3)c3ccccc23)cc1Br [Example 21]	103 to 105 °C	15 nM	
COc1ccc(Cc2cnc(Nc3ccc(C(C)(C)C)cc3)c3ccccc23)cn1 [Example 33e, 1-[4-(tert-butyl)-anilino]-4-[(6-methoxy-pyridin-3yl)-methyl]-isoquinoline]			28 nM
CC(C)(C)c1ccc(Nc2ncc(Cc3ccc(O)nc3)c3ccccc23)cc1 [Example 34e, 1-[4-(tert-butyl)-anilino]4-[(6-hydroxy-pyridin-3-yl)-methyl]-isoquinoline]			19 nM
CCc1ccc(Nc2ncc(Cc3ccc(O)nc3)c3ccccc23)cc1Br [Example 34g, 1-(3-bromo-4-ethylanilino]-4-[(6-hydroxy-pyridin-3-yl)-methyl]-isoquinoline]		137 nM	29 nM
CCc1ccc(Nc2ncc(Cc3ccc(OC)nc3)c3ncccc23)cc1Br [Example 37a, 5-(3-bromo-4-ethyl-anilino)-8-[(6-methoxy-pyridin-3-yl)-methyl]-[1,6]naphthyridine]	142 to 146 °C		
CCc1ccc(Nc2ncc(Cc3ccc(O)nc3)c3ncccc23)cc1Br [Example 37b, 5-(3-bromo-4-ethyl-anilino)-8-[(6-hydroxy-pyridin-3-yl)-methyl]-[1,6]naphthyridine]		92 nM	
CC(C)[C@H]1CC[C@H](Nc2ncc(Cc3ccc(O)nc3)c3ncccc23)CC1 [Example 39, trans 5-(4-isopropyl-cyclohexylamino)-8-[(6-hydroxy-pyridin-3-yl)-methyl]-[1,6]naphthyridine]	232 to 235 °C		
COc1ccc(Cc2cnc(Nc3ccc(C(C)(C)C)cc3)c3cccnc23)cn1 [Example 40e, 5-[4-(tert-butyl)-anilino]-8-[(6-methoxy-pyridin-3-yl)-methyl]-[1,6]naphthyridine]		81 nM	52 nM
CC(C)(C)c1ccc(Nc2ncc(Cc3ccc(O)nc3)c3ncccc23)cc1 [Example 41e, 5-[4-(tert-butyl)-anilino]-8-[(6-hydroxy-pyridin-3-yl)-methyl]-[1,6]naphthyridine]			22 nM
Cc1nc(Nc2cccc(C(F)(F)F)c2)c2ccccc2c1Cc1ccc(Cl)nc1 [Example 45a, 1-(3-trifluoromethyl-anilino)-4-[(6-chloro-pyridin-3-yl)-methyl]-3-methylisoquinoline]	137 °C		
